# Laboratory results published in PubChem BioAssay AID602205 (Sanford-Burnham Center for Chemical Genomics, 2012).
# pIC50: −log10 of the molar value. Calls of active or inactive are those of the source. The rule behind the calls is not given here.
# Target: Ubiquitin-conjugating enzyme E2 N (Homo sapiens) (UniProt P61088)
# Experiment: inhibition of UBC13-driven polyubiquitin chain formation – biochemical, TR-FRET, set 3, SAR follow-up (AID 602205)
# Settings: TR-FRET polyubiquitination assay
# Sequence of Ubiquitin-conjugating enzyme E2 N (Homo sapiens) (P61088 whole entry, looked up): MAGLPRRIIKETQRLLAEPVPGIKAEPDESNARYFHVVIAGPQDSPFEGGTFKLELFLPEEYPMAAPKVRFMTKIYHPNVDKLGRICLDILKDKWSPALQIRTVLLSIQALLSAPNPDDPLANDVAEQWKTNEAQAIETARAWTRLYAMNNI
SMILES,IC50,pIC50
COc1ccc(NC(=O)C2CCN(c3ncnc4c3nc3n4CCCCC3)CC2)cc1Cl,> 100 µM (inactive),–
COc1cc(OC)c(NC(=O)C2CCN(c3ncnc4c3nc3n4CCCCC3)CC2)cc1Cl,> 100 µM (inactive),–
COc1ccc(Cl)cc1NC(=O)C1CCN(c2ncnc3c2nc2n3CCCCC2)CC1,inactive,–
O=C(Nc1cc(F)ccc1F)C1CCN(c2ncnc3c2nc2n3CCCCC2)CC1,inactive,–
Cc1ccc(NC(=O)C2CCN(c3ncnc4c3nc3n4CCCCC3)CC2)cc1C,inactive,–
Cc1ccc(Cl)cc1N1CCN(c2ncnc3c2nc2n3CCCC2)CC1,> 100 µM (inactive),–
O=C(Nc1ccc(CN2CCCCC2)cc1)C1CCN(c2ncnc3c2nc2n3CCCCC2)CC1,> 100 µM (inactive),–
O=C(Nc1cccc(Cl)c1)C1CCN(c2ncnc3c2nc2n3CCCCC2)CC1,–,5.02
Cc1ccc(NC(=O)C2CCN(c3ncnc4c3nc3n4CCCCC3)CC2)c(Cl)c1,> 100 µM (inactive),–
Cc1ccc(NC(=O)C2CCN(c3ncnc4c3nc3n4CCCCC3)CC2)cc1F,inactive,–
O=C(CCCCCN1C(=O)c2ccccc2C1=O)NCCc1ccccc1,> 100 µM (inactive),–
c1ccc(CN2CCN(c3ncnc4c3nc3n4CCCC3)CC2)cc1,> 100 µM (inactive),–
CC1CN(S(=O)(=O)c2ccc(NC(=O)CCCCCN3C(=O)c4ccccc4C3=O)cc2)CC(C)O1 (centres undefined),> 100 µM (inactive),–

# Further lines, results first:
IC50,pIC50,SMILES
> 100 µM (inactive),–,c1nc(N2CCC(N3CCCCC3)CC2)c2nc3n(c2n1)CCCC3
inactive,–,Cc1cc(Cl)ccc1NC(=O)C1CCN(c2ncnc3c2nc2n3CCCCC2)CC1
> 100 µM (inactive),–,CCOc1ccc(CCNC(=O)CCCCCN2C(=O)c3ccccc3C2=O)cc1OCC
> 100 µM (inactive),–,Fc1ccccc1N1CCN(c2ncnc3c2nc2n3CCCC2)CC1
inactive,–,Cc1c(Cl)cccc1NC(=O)C1CCN(c2ncnc3c2nc2n3CCCCC2)CC1
> 100 µM (inactive),–,COc1cc(Cl)c(C)cc1NC(=O)C1CCN(c2ncnc3c2nc2n3CCCCC2)CC1
